One assay concerns A2780 cells. The assay can be described thus: Cell Viability Assay (ATPlite 1step), A2780. Particulars: Homo sapiens, 72 hours; for percent inhibition of cell viability at 4 µM: A2780, 4 uM compound, read-out: Cell Viability % inhibition A2780 (4 uM Cpd); for percent inhibition of cell viability at 20 µM: A2780, 20 uM compound, read-out: Cell Viability % inhibition A2780 (20 uM Cpd). It counts as cell-based. In outline:
(§1)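 Cells seeded at 1000/well, grown 24 h at 37 °C/5% CO2, then exposed to compounds (DMSO stock diluted in media) for 72 h; viability read by ATPlite 1step luminescence. A2780 and PC3 in RPMI, MCF-7 in K-12F, each with 10% FBS.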

Another assay concerns MCF-7 cells. The assay can be described thus: Cell Viability Assay (ATPlite 1step), MCF-7. It counts as cell-based. The conditions noted are these: Homo sapiens, MCF7, 72 hours; for percent inhibition of cell viability at 4 µM: MCF-7, 4 uM compound, read-out: Cell Viability % inhibition MCF-7 (4 uM Cpd); for percent inhibition of cell viability at 20 µM: MCF-7, 20 uM compound, read-out: Cell Viability % inhibition MCF-7 (20 uM Cpd). The method in brief:
as §1

A further assay deals with porcine neuronal tubulin. The assay can be described thus: Tubulin Polymerization Assay. It counts as biochemical. Particulars: porcine tubulin 2.0 mg/ml, 37° C., fluorescence; read-out: IC50 (tubulin polymerization, from Vmax). An excerpt: Tubulin Polymerization Assay
The Tubulin Polymerization Assay uses porcine neuronal tubulin and measurements are based on fluorescence enhancement due to the incorporation of a fluorescent reporter into microtubules as polymerization occurs. The assay generates a polymerization curve representing the three phases of microtubule formation (nucleation, growth and equilibrium). IC50 values for tested compounds can be generated from the observed polymerization curves.
Procedure: All compounds dilutions (in DMSO) were prepared prior to the following steps. A Molecular Devices M2 plate reader was set to 37° C. Once the internal temperature of the plate reader reached 37° C. a 96 well plate (Corning Costar, at. #3686) was placed in the fluorimeter and allowed to warm to 37° C. for 30 minutes. A total of 10 mg of porcine tubulin was resuspended in […] of Polymerization Buffer [Buffer 1 (80 mM PIPES pH 6.9, 2.0 mM MgCl2, 0.5 mM EGTA, 1.0 mM GTP and 10 μM fluorescent reporter) supplemented with 20% glycerol] to generate a 2.0 mg/ml tubulin stock and this was kept on ice. The 50× compound stocks in 100% DMSO were spotted 1 μl/well in duplicate into the wells of the 96-well plate at 37° C. and allowed to re-warm for 5 minutes at 37° C. During this incubation the 2.0 mg/ml tubulin stock was placed in a disposable plastic trough and allowed to warm briefly at room temperature. To initiate the reaction, 50 μl/well of 2.0 mg/ml tubulin in Polymerization Buffer was added to each well using a multi-channel pipettor and the fluorescence measurements were started immediately.
The maximal velocity (Vmax) of tubulin polymerization was determined using linear regression of the averaged fluorescence data at each time point using GraphPad Prism 5.0 software. The Vmax determinations for each compound at each concentration were then normalized to reactions that contained DMSO (2% final concentration) but no test compounds. This converted the data to % Activity, which refers to the percent of the Vmax of an uninhibited reaction. The concentration response curves were then plotted as the % Activity versus the Log 10 of the compound concentration in micromolar and fit by non-linear regression to a 4-parameter sigmoidal dose-response equation using GraphPad Prism 5.0 software to determine the IC50 for each compound.

The next assay has as its system PC3 cells. Put plainly: Cell Viability Assay (ATPlite 1step), PC3. It counts as cell-based. Particulars: Homo sapiens, PC-3, 72 hours; for percent inhibition of cell viability at 4 µM: PC3, 4 uM compound, read-out: Cell Viability % inhibition PC3 (4 uM Cpd); for percent inhibition of cell viability at 20 µM: PC3, 20 uM compound, read-out: Cell Viability % inhibition PC3 (20 uM Cpd). The method in brief: as §1
(In ATP-based viability assays light output follows the ATP content of the culture.)

As a reminder, the IC50 is the concentration that inhibits the measured activity by half. Consider `Cc1ncc(C(=O)Nc2ncc(-c3cccc(C4CC4)c3)cc2F)cn1` [Compound 67, N-[5-(3-cyclopropylphenyl)-3-fluoropyridin-2-yl]-2-methylpyrimidine-5-carboxamide], for which the percent inhibition of cell viability at 4 µM with A2780 cells turned out to be 87.1%; in the assay with MCF-7 cells it was 60%; in the assay on PC3 cells it was 56%. The percent inhibition of cell viability at 20 µM was found to be 87.9% in the assay on A2780 cells, 63.7% in the assay on MCF-7 cells and 61.6% in the assay on PC3 cells. Moreover, the IC50 with porcine neuronal tubulin was 2420 nM.
Regarding `Cc1ncc(C(=O)Nc2ncc(-c3ccsc3)cc2F)cn1` [Compound 69, N-[3-fluoro-5-(thiophen-3-yl)pyridin-2-yl]-2-methylpyrimidine-5-carboxamide], the percent inhibition of cell viability at 4 µM in the assay on A2780 cells turned out to be 84.7%; with MCF-7 cells it was 56.2%; in the assay with PC3 cells it was 57.6%. Moreover, the percent inhibition of cell viability at 20 µM with A2780 cells amounted to 90.1%; in the assay on MCF-7 cells, 61.3%; with PC3 cells, 64.5%. The IC50 in the assay with porcine neuronal tubulin was 2350 nM.
With `Cc1ncc(C(=O)Nc2ncc(-c3cccc(S(=O)(=O)C4CC4)c3)cc2F)cn1` [Compound 70, N-{5-[3-(cyclopropylsulfonyl)phenyl]-3-fluoropyridin-2-yl}-2-methylpyrimidine-5-carboxamide], the percent inhibition of cell viability at 4 µM in the assay on A2780 cells worked out at 86.3%; with MCF-7 cells, 61.1%; in the assay with PC3 cells, 58.4%. The percent inhibition of cell viability at 20 µM stood at 87.8% in the assay with A2780 cells, 66.1% in the assay with MCF-7 cells and 65% with PC3 cells. In the assay with porcine neuronal tubulin, the half-maximal inhibitory concentration (IC50) came to 10 nM.

These data come from patent US12383533B2 (Frost Biologic, Inc., priority 2014, dated 2025).
